Source: ChEMBL document CHEMBL1201862, “PubChem BioAssay data set” (2004)
Calls of active or inactive are those of the source.

How the values were obtained:
[1] = biological target: T1, Leucine aminopeptidase (Plasmodium falciparum 3D7, UniProt Q8IL11); experiment: P. falciparum M17LAP inhibitors, primary screen, biochemical, fluorogenic H-Leu-NHMec substrate, 1536-well (AID 1619); format: functional
T1 sequence (Q8IL11 whole entry): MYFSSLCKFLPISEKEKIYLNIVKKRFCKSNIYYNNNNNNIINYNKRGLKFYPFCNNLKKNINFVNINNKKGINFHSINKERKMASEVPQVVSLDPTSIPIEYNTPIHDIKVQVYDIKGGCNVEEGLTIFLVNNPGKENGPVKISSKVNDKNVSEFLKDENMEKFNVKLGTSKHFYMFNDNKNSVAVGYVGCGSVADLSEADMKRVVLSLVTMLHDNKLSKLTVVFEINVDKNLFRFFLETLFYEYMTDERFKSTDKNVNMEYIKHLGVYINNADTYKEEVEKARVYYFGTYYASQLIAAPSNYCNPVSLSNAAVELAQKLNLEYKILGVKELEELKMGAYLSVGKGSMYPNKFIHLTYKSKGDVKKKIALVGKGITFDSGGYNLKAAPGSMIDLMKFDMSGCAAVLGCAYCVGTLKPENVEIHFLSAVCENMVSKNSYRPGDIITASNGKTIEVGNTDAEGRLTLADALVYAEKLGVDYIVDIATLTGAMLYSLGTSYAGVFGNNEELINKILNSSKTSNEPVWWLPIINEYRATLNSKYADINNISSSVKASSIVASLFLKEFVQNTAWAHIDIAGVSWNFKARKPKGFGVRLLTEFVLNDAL

[2] = biological target: Induced myeloid leukemia cell differentiation protein Mcl-1 (Homo sapiens, UniProt Q07820); format: functional
Induced myeloid leukemia cell differentiation protein Mcl-1, sequence (Q07820 whole entry): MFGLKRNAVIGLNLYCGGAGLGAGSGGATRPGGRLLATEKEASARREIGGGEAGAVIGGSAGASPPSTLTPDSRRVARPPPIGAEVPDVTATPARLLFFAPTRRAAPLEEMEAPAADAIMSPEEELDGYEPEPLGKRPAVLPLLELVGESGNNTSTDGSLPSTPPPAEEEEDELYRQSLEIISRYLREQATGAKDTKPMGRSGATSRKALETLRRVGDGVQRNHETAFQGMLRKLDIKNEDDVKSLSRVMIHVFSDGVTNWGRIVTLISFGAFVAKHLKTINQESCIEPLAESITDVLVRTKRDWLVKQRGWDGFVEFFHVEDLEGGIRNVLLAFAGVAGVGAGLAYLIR

[3] = biological target: T2, Calpain-2 catalytic subunit (Sus scrofa, UniProt P43367); experiment: pig calpain II inhibitor potency, dose response, biochemical, fluorogenic peptide substrate (AID 1420); format: functional
T2 sequence (P43367 whole entry): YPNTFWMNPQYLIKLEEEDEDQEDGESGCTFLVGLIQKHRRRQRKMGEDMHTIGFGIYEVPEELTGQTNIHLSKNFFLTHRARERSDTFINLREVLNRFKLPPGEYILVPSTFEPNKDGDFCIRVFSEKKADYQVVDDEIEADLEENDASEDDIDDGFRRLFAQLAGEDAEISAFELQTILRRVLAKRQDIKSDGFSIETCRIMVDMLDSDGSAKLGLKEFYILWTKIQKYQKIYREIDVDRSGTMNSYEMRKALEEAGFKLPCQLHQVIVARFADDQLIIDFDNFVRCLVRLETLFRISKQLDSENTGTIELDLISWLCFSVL

[4] = biological target: T3, Ubiquitin-conjugating enzyme E2 N (Homo sapiens, UniProt P61088); format: functional;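 further: Dose-response confirmation in a TR-FRET assay detecting UBC13-driven polyubiquitin chain formation, inhibition measured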
T3 sequence (P61088 whole entry): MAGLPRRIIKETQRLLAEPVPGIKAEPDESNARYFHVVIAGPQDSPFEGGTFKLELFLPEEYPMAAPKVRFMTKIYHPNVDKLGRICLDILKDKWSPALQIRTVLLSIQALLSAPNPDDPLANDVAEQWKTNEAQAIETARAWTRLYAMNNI

[5] = Luminescence Cell-Based Dose Response HTS to Identify Activators of Luciferase Translation or Activity in H4 […] Cells. [Related pubchem assays: 1829 (Project Summary), 1814 (Primary HTS)]; format: functional
[6] = test system: H4; experiment: Luminescence Cell-Based Dose Response HTS to Identify Activators of 5'UTR Stem-Loop Driven Prion Protein mRNA Translation in H4 Neuroglioblastoma Cells. [Related pubchem assays: 1829 (Project Summary), 1814 (Primary HTS)]; format: functional; conditions: Homo sapiens
[7] = biological target: Mitogen-activated protein kinase 10 (Homo sapiens, UniProt P53779); experiment: Dose response biochemical screening assay for inhibitors of c-Jun N-Terminal Kinase 3 (JNK3). [Related pubchem assays: 746 ]
Mitogen-activated protein kinase 10, sequence (P53779 whole entry): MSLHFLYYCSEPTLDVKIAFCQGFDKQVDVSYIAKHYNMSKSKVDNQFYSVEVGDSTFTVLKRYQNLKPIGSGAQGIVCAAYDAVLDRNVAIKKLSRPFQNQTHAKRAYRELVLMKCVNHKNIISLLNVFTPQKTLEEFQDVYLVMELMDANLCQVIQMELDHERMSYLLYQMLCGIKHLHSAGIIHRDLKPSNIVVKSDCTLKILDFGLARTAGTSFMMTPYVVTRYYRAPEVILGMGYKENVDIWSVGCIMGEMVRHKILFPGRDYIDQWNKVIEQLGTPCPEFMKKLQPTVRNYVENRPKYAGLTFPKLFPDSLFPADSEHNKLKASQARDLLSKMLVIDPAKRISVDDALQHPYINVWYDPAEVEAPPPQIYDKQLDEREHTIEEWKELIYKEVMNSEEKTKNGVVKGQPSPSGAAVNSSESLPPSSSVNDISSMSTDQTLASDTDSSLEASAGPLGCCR

[8] = biological target: T4, Protein skinhead-1 (Caenorhabditis elegans, UniProt P34707); format: functional
T4 sequence (P34707 whole entry): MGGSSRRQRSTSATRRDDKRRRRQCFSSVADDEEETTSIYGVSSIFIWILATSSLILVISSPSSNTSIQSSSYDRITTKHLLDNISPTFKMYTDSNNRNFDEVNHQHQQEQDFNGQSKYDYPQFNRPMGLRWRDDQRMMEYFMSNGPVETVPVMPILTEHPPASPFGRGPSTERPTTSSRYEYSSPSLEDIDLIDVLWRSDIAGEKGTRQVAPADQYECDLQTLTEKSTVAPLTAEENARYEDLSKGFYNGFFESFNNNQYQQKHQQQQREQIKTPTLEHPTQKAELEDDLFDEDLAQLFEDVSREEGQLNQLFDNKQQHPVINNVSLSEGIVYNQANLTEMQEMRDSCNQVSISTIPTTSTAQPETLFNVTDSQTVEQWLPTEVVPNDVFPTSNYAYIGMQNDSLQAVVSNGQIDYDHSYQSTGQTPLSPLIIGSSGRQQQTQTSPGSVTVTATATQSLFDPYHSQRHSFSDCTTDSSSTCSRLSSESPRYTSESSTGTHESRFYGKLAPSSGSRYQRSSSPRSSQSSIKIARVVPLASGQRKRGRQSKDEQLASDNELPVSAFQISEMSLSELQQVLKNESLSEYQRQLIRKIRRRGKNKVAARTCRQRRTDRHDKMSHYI

[9] = Shn3 3'UTR reporter inhibitors, dose response, cell-based, Clone20 osteoblasts, firefly luciferase, cherry-picked (AID 624132); format: functional;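 further: firefly luciferase luminescence from reporter carrying the Shn3 3'UTR in osteoblasts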
[10] = HepG2 cell cytotoxicity, dose response, cytotoxicity control for Shn3 inhibitor project, CellTiter-Glo, cherry-picked (AID 624134); format: functional, cell-based
[11] = control 3'UTR Renilla luciferase suppression, dose response, counter-screen for Shn3 inhibitor project, cell-based, Clone20-Shn3RL, cherry-picked (AID 624133); format: functional
[12] = biological target: T5, Mannose-6-phosphate isomerase (Homo sapiens, UniProt P34949); experiment: human PMI inhibitors, high substrate, primary screen, biochemical, fluorescence intensity, high mannose 6-phosphate (AID 1220)
T5 sequence (P34949 whole entry): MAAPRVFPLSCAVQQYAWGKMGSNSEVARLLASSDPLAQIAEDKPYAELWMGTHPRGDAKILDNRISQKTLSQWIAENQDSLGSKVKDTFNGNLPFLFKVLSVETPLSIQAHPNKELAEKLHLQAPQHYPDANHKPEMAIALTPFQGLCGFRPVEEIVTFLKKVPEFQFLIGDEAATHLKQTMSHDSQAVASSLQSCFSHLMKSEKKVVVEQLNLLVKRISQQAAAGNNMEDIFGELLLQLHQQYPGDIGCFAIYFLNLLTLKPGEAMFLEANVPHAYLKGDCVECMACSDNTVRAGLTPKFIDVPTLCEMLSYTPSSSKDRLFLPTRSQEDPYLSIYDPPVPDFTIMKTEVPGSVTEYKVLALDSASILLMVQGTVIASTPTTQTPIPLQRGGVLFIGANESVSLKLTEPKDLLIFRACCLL

[13] = biological target: T6, Replicative DNA helicase DnaB (Mycobacterium tuberculosis, UniProt P9WMR3); experiment: DnaB intein splicing inhibitors, dose response, biochemical, cell-free fluorescence (AID 449749); format: functional
T6 sequence (P9WMR3 whole entry): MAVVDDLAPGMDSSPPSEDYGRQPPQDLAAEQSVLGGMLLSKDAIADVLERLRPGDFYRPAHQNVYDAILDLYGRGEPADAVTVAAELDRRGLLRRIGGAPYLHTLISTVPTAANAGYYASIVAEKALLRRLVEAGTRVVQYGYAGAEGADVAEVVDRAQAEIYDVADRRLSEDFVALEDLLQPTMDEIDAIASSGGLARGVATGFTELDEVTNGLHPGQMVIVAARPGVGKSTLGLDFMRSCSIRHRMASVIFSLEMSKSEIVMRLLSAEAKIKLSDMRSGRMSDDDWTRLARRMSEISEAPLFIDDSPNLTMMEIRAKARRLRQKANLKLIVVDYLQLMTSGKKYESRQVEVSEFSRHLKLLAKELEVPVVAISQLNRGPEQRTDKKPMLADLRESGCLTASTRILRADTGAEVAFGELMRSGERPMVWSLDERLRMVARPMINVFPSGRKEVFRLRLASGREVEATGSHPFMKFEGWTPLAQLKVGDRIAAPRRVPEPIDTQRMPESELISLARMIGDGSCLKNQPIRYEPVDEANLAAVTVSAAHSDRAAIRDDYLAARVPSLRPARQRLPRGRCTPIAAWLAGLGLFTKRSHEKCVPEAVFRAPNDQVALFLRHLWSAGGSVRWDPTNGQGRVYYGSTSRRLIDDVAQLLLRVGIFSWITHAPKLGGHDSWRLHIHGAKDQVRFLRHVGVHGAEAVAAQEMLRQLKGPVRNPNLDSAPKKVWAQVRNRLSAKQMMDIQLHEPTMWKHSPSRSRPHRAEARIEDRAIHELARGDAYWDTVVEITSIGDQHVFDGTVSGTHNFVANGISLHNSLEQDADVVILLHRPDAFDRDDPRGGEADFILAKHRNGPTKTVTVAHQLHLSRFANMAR

[14] = biological target: T7, Protein RecA (Mycobacterium tuberculosis, UniProt P9WHJ3); experiment: Fluorescence Cell-Free Homogeneous Dose Retest to Identify Inhibitors of RecA-Intein Splicing Activity. [Related pubchem assays (depositor defined):AID2097, AID2223, AID489010, AID492950]; format: functional
T7 sequence (P9WHJ3 whole entry): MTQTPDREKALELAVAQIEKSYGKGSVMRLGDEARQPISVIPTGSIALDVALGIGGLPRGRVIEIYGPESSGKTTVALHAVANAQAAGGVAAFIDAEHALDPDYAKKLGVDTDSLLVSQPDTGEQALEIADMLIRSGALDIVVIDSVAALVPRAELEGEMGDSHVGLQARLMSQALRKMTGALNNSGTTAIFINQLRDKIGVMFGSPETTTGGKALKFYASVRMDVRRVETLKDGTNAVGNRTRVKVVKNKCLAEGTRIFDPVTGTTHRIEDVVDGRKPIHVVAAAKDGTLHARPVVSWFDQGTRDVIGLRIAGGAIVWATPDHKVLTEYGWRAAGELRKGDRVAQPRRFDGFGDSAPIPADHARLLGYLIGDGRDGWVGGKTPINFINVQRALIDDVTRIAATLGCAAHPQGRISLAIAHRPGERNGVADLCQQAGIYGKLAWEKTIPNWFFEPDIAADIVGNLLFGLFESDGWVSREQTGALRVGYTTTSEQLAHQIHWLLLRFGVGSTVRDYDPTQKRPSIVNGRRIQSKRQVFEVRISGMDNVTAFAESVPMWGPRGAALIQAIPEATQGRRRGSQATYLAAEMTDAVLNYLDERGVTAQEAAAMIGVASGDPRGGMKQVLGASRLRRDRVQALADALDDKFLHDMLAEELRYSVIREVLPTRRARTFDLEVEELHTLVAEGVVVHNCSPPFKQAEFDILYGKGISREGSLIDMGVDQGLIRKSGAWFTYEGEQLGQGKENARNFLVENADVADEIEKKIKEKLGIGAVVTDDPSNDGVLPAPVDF

[15] = inhibitors of HIV Env-driven cell fusion, dose response, cherry-pick (AID 652057); format: functional, cell-based
[16] = ZM109 Env clade C HIV-1 fusion inhibitors, dose response, HeLa effector, CEM target cells, luciferase, cherry-pick (AID 652058); format: functional, cell-based
[17] = off-target signal loss in HeLa-CEM21 co-culture – HeLa F-luc CTL cells, cherry-picked, counter-screen for HIV-1 Env fusion inhibitor project, dose response (AID 652040); format: functional, cell-based;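 further: potency for signal decrease marking cytotoxic or nonspecific inhibition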
[18] = inhibitors of clade B AD8 Env fusion, dose response, cell-based, cherry-pick (AID 652062); format: functional;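 further: luciferase signal from cell-cell fusion driven by HIV-1 clade B AD8 Env; potency is for inhibitors of fusion seen as a drop in luminescence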

For `Cc1ccc(Nc2cnn(C34CC5CC(CC(CC(=O)O)(C5)C3)C4)c(=O)c2Cl)cc1`, the IC50 [1] was 44.1 µM (active).

For `CCc1nnc(NS(=O)(=O)c2ccc(NC(=O)COc3ccc4ccccc4c3)cc2)s1`, the IC50 [1] was 5.1 µM (active).

With `COc1ccc(NC(=O)CN2C(=O)/C(=C3\SC(=S)N(C4CCS(=O)(=O)C4)C3=O)c3ccccc32)cc1` (centres undefined) the IC50 [2] was 3.39 µM (active).

With `CN(C)c1ccc(C(CNC(=O)c2ccc(C#N)cc2)c2c[nH]c3ccccc23)cc1` (centres undefined) the IC50 [2] was 2.78 µM (not active).

In the case of `CC(C)Oc1ccc(CCc2nnc(S)n2Cc2ccccc2)cc1`, the IC50 [3] is reported as 4.67 µM (not active).

With `O=C(O)CC12CC3CC(C1)CC(n1ncc(NCc4ccc(F)cc4)c(Cl)c1=O)(C3)C2` the IC50 [1] was 54 µM (active).

In the case of `Cc1ccc(/N=C2\C(Cl)=C(O)OC2OC(=O)c2ccccc2C)cc1` (centres undefined), the IC50 [3] is reported as 12.6 µM (not active) and the IC50 [4] is reported as > 20 µM (inactive).

For `c1ccc(-n2nc3ccc4c[nH]nc4c3n2)cc1`, the EC50 [5] was > 120 µM (not active), the EC50 [6] was 0.327 µM (active) and the IC50 [7] was 43 µM (not active). For the same compound, the IC50 [8] was > 100 µM (inactive).

For `CC1CCC2C(=O)N(c3ccc(Cc4ccncc4)cc3)C(=O)C2C1` (centres undefined), the IC50 [3] was 13.3 µM (not active), the AC50 [9] was 2.65 µM (active) and the AC50 [10] was 47.7 µM (active). For the same compound, the AC50 [11] was 5.74 µM (active).

With `CCCC(=O)OCCNc1cc(SCCC(=O)OC)c2nonc2c1[N+](=O)[O-]` the IC50 [12] was > 50 µM (not active), the AC50 [13] was 2.88 µM (active) and the EC50 [14] was 4.87 µM (active).

For `CC(C)(C)C1CCc2onc(C(=O)NCc3ccc(F)cc3)c2C1` (centres undefined), the IC50 [3] was > 50 µM (not active), the AC50 [15] was 23 µM (active) and the AC50 [16] was 2.91 µM (active). For the same compound, the AC50 [17] was 37 µM (active) and the AC50 [18] was 21.9 µM (active).
